From patent US4731470A, “[(5,6-dichloro-3-oxo-2,9a-alkano-2,3,9,9a-tetrahydro-1H-fluoren-7-yl)oxy] alkanoic acids and alkanimidamides” (Merck & Co., Inc., priority 1986, dated 1988)

Assays:
[1] = test system: cat cerebrocortical tissue slices; assay: In vitro cat cerebrocortical tissue slice assay (HCO3^- -stimulated tissue swelling); assay type: cell-based; details: Felis catus, read-out: percentage inhibition of tissue swelling (% Inhib.)
Description: Using the in vitro cat cerebrocortical tissue slice assay, described in Example 1, compounds of the present invention can be tested for activity. This test provides the principal in vitro evaluation and consists of a determination of concentration vs. response curve. The addition of HCO3^- to isotonic, K^+ -rich saline-glucose incubation media is known to specifically stimulate the transport of Cl^- coupled with Na^+ and an osmotic equivalent of water in incubating slices of mammalian cerebral cortex. […] After addition of drug to the incubation media, detailed drug concentration-response curves are then obtained. The data are expressed as percent HCO3^- -stimulated swelling vs. drug concentration, from which the concentration of drug providing 50% inhibition of HCO3^- -stimulated swelling (I50 in molarity) is interpolated.
Adult cats of 2-3 kg body weight are employed in tissue slice studies. Prior to sacrifice, the animals are anesthetized with ketamine hydrochloride (Ketaset), 10 mg/kg intramuscularly. Eight (three control, five experimental) pial surface cerebrocortical tissue slices (0.5-mm thick; approximately 150 mg initial fresh weight) are cut successively with a calibrated Stadie-Riggs fresh tissue microtome without moistening and weighed successively on a torsion balance. During the slice preparation all operations except weighing are confined to a humid chamber. Each slice is rapidly placed in an individual Warburg flask containing 2 ml of incubation medium at room temperature. The basic composition of the incubation media, in millimoles per liter, is as follows: glucose, 10; CaCl2, 1.3; MgSO4, 1.2; KHSO4, 1.2; Hepes (N-2-hydroxyethylpiperazine-N'-2-ethanesulfonic acid, titrated with NaOH to pH 7.4), 20. Except when adding HCO3^-, the osmolarity of the media is maintained isosmotic (approximately 285 mOsm/L) by reciprocal changes of Na^+ or K^+ to achieve a concentration of K^+ of 27 mM. The basic medium was saturated with oxygen by bubbling pure oxygen through the solution for 30 minutes before use. […]
Following the 60-minute incubation period, tissue slices are separated from incubation medium by filtration, reweighed, and homogenized in 1N HClO4 (10% w/v) for electrolyte analysis. […] Control slice swelling is expressed as microliters per gram initial preswelling fresh weight. The effectiveness of an inhibitor at a given concentration is measured by the amount of HCO3^- -stimulated swelling that occurred in its presence, computed as a percent of the maximum possible. Tissue and media Na^+ and K^+ levels are determined by emission flame photometry with Li^+ internal standard; Cl^- levels are determined by amperometric titration. Tissue viability during incubation is monitored by manometry.

[2] = test system: astroglial edema; details: cited from earlier work
[3] = test system: clinical cases of head injury; details: cited from earlier work
[4] = test system: animals receiving experimental in vivo head injury; details: cited from earlier work

| SMILES | inhibition at 1 µM ([1]; conc. 10^-6 M) | inhibition at 0.1 µM ([1]; conc. 10^-7 M) | inhibition at 0.01 µM ([1]; conc. 10^-8 M) | inhibition at 0.001 µM ([1]; conc. 10^-9 M) | activity in in vitro assays [2] | reducing mortality in clinical cases of head injury [3] | activity in in vivo assays [4] |
| --- | --- | --- | --- | --- | --- | --- | --- |
| O=C(O)COc1cc2c(c(Cl)c1Cl)C1=CC(=O)C3CCCC1(C2)C3 (racemic) [Example 2, [(5,6-Dichloro-3-oxo-2,9a-propano-2,3,9,9a-tetrahydro-1H-fluoren-7-yl)oxy]acetic acid] | 81% | 54% | 29% | 10% | – | – | – |
| C=C(CC)C(=O)c1ccc(OCC(=O)O)c(Cl)c1Cl [ethacrynic acid] | – | – | – | – | exhibited activity | effective in reducing mortality | exhibited activity |
